T1: LOXL2 (Homo sapiens, UniProt Q9Y4K0)
T1 sequence (Q9Y4K0 26-774): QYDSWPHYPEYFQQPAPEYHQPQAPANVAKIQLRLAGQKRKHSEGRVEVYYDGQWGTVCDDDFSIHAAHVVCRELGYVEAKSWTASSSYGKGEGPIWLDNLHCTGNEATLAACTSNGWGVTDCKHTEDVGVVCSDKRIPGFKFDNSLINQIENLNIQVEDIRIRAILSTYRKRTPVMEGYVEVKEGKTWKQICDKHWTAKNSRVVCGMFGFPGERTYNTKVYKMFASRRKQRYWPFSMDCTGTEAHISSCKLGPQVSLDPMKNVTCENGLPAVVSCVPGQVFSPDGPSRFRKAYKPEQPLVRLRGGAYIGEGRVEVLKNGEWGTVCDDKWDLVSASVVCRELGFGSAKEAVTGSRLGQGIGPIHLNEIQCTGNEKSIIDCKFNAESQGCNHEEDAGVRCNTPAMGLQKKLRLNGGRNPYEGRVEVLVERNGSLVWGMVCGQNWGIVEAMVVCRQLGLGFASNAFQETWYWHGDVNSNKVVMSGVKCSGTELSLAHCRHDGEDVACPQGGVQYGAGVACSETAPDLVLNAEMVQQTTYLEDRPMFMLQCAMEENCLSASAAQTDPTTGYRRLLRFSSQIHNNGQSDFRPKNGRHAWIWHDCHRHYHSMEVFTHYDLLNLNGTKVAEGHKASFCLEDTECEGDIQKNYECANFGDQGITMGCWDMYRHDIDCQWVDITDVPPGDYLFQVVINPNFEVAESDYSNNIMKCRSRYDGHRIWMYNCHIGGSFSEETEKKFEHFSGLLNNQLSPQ

B1: M20: monoclonal anti-LOXL2 antibody described in co-owned US 2009/0053224; variable regions SEQ ID NO: 12 and 13 (antibody, V domains shown)
VH: MEWSRVFIFLLSVTAGVHSQVQLQQSGAELVRPGTSVKVSCKASGYAFTYYLIEWVKQRPGQGLEWIGVINPGSGGTNYNEKFKGKATLTADKSSSTAYMQLSSLTSDDSAVYFCARNWMNFDYWGQGTTLTVSS
VL: MRCLAEFLGLLVLWIPGAIGDIVMTQAAPSVSVTPGESVSISCRSSKSLLHSNGNTYLYWFLQRPGQSPQFLIYRMSNLASGVPDRFSGSGSGTAFTLRISRVEAEDVGVYYCMQHLEYPYTFGGGTKLEIK

Tests used:
LOX mRNA = test: Quantitative PCR of LOX mRNA in siRNA-transfected MDA 231 cells; assay type: cell-based, human; conditions: normalized to RPL19 mRNA, compared to non-targeting siRNA, FIG. 13
Procedure: (§1) MDA231 cells were seeded at 7,500 cells per well in 96-well plates (VWR International, West Chester, Pa.) in DMEM/FBS at 37° C., 5% CO2 and atmospheric oxygen. Cells were transfected at the time of seeding with […] RNA oligonucleotide, using the Dharmafect transfection reagent according to the manufacturer's instructions (Thermo Scientific, Lafayette, Colo.). Twenty-four hours later, the medium was replaced with medium containing various concentrations of erlotinib (LC Laboratories, Woburn, Mass.). After 5 days continuous exposure to drug, live cell number was determined as described in Example 1. […] In addition, levels of mRNAs encoding LOX and LOXL 2 were determined in the in the samples transfected with the LOX- and LOXL2-targeted siRNAs, and normalized to levels of RPL19 mRNA (which encodes a ribosomal protein).
(§2) For RNA analysis, mRNA was harvested using an RNEasy Mini kit (Qiagen, Valencia, Calif.) according to the manufacturer's instructions. A quantitative PCR reaction was assembled using the Brilliant II Core reagent kit according to the manufacturer's instructions (Agilent Technologies, Cedar Creek, Tex.). The quantitative PCR reaction cycle was as follows: 30 min at 50° C., 10 min at 95° C. and 40 cycles of 15 sec at 95° C. in combination with 1 min at 60° C.

MDA231 cells = test: Erlotinib sensitivity (live cell number) of siRNA-transfected MDA231 cells; assay type: cell-based, human; conditions: for effect of siRNA transfection on sensitivity of the cells to erlotinib: MDA 231 cells grown on collagen, 5 days exposure to erlotinib; for effect of siRNA on sensitivity of the cells to erlotinib: MDA 231 cells grown on tissue culture plastic, separate experiments
Procedure: Cells from each of the four aforementioned lines were seeded at 3,000 cells per well in 96-well plates (VWR International, West Chester, Pa.), and cultured in Dulbecco's Modified Eagle's Medium supplemented with 10% fetal bovine serum (DMEM/FBS) at 37° C., 5% CO2 and atmospheric oxygen. Cells were cultured either in untreated wells or in collagen-coated wells, obtained or prepared as described above. Twenty-four hours later, medium was replaced with fresh medium containing various concentrations of erlotinib (LC Laboratories, Woburn, Mass.), cisplatin (Calbiochem, Gibbstown, N.J.) or methotrexate (Calbiochem, Gibbstown, N.J.). After 5 days' culture in the presence of the drug, live cell numbers were determined using the Cell Titer-Glo® luminescent cell viability assay (Promega, San Luis Obispo, Calif.) according to the manufacturer's instructions. For each cell line, three samples were assayed at each drug concentration.
MDA231 cells were seeded at 7,500 cells per well in 96-well plates (VWR International, West Chester, Pa.) in DMEM/FBS at 37° C., 5% CO2 and atmospheric oxygen. Cells were transfected at the time of seeding with […] RNA oligonucleotide, using the Dharmafect transfection reagent according to the manufacturer's instructions (Thermo Scientific, Lafayette, Colo.). Twenty-four hours later, the medium was replaced with medium containing various concentrations of erlotinib (LC Laboratories, Woburn, Mass.). After 5 days continuous exposure to drug, live cell number was determined as described in Example 1. For each condition, (LOX siRNA, LOXL2 siRNA, or non-targeting siRNA), three samples were assayed at each drug concentration. In addition, levels of mRNAs encoding LOX and LOXL 2 were determined in the in the samples transfected with the LOX- and LOXL2-targeted siRNAs, and normalized to levels of RPL19 mRNA (which encodes a ribosomal protein).

MDA-MB-435 cells = test: Chemotherapeutic sensitivity of MDA-MB-435 cells on extracellular matrices with anti-LOXL2 antibody; assay type: cell-based, human; conditions: MDA-MB-435 cells plated on different extracellular matrices
Procedure: (§3) MDA-MB-435 cells (breast adenocarcinoma cell lines, ATCC, Manassas, Va.) are resuspended in medium containing 10-50 μg/mL anti-LOXL2 or control IgG antibody. Cells are seeded into 96 well tissue culture plates (10^3-10^4 cells in 100 μL per well) coated with poly-L-lysine, collagen I, collagen IV, fibronectin, or Matrigel™ (BD Biosciences, San Jose, Calif.). Alternatively, cells are plated in standard 96 well tissue culture plates (Costar, VWR International, West Chester, Pa.). Cells are incubated overnight at 37° C. in a 5% CO2 incubator. After sixteen to twenty hours, various concentrations of cisplatin (DDP), methotrexate, doxorubicin, docetaxel, gemcitabine, or 5-FU are added. Cells are incubated for 3-5 days at 37° C. in a 5% CO2 incubator, and the number of remaining live cells are quantified using the Cell Titer-Glo® luminescent cell viability assay (Promega, Madison, Wis.) according to the manufacturer's instructions. For each condition, samples are assayed in triplicate. The data are analyzed using GraphPad Prism software (or equivalent) to calculate IC50 values from a 4-parameter logistic equation.

Panc-1 cells = test: Chemotherapeutic sensitivity of Panc-1 cells on extracellular matrices with anti-LOXL2 antibody; assay type: cell-based; conditions: Panc-1 cells plated on different extracellular matrices
Procedure: as §3, with “Panc-1 or Capan-1” for “MDA-MB-435”, “(pancreas” for “(breast”, “gemcitabine, docetaxel,” for “cisplatin (DDP), methotrexate,”, “5-FU” for “docetaxel, gemcitabine,”, “erlotinib” for “5-FU”

Capan-1 cells = test: Chemotherapeutic sensitivity of Capan-1 cells on extracellular matrices with anti-LOXL2 antibody; assay type: cell-based; conditions: Capan-1 cells plated on different extracellular matrices
Procedure: as §3, with “Panc-1 or Capan-1” for “MDA-MB-435”, “(pancreas” for “(breast”, “gemcitabine, docetaxel,” for “cisplatin (DDP), methotrexate,”, “5-FU” for “docetaxel, gemcitabine,”, “erlotinib” for “5-FU”

LOXL2 mRNA = test: Quantitative PCR of LOXL2 mRNA in siRNA-transfected MDA 231 cells; assay type: cell-based, human; conditions: normalized to RPL19 mRNA, compared to non-targeting siRNA, FIG. 13
Procedure: as §1, §2

LOXL2 [1] = molecular target: T1, LOXL2; conditions: as disclosed in US 2009/0053224; cited from earlier work
LOXL2 [2] = molecular target: T1, LOXL2; conditions: as disclosed in US 2009/0053224; cited from earlier work; remark: listed apart in the source

Molecule	sensitivity of cells to the chemotherapeutic in the presence of anti-LOXL2 antibodies (MDA-MB-435 cells)	sensitivity of cells to the chemotherapeutic in the presence of anti-LOXL2 antibodies (Panc-1 cells)	sensitivity of cells to the chemotherapeutic in the presence of anti-LOXL2 antibodies (Capan-1 cells)	other results
LOX-targeted siRNA: short RNA homologous to regions near the 3' end of LOX mRNA, from Invitrogen: ACAGGGAUUGAGUCCUGGCUGUUAU (listed as RNA, chemistry not given here)	–	–	–	reduction of levels of LOX mRNA (LOX mRNA): over two-fold; effect of siRNA transfection on sensitivity of the cells to erlotinib (MDA231 cells; FIG. 14): greatly increased sensitivity; effect of siRNA on sensitivity of the cells to erlotinib (MDA231 cells): little or no effect
CN(Cc1cnc2nc(N)nc(N)c2n1)c1ccc(C(=O)N[C@@H](CCC(=O)O)C(=O)O)cc1 [methotrexate]	increased sensitivity	–	–	–
CC(=O)O[C@@]12CO[C@@H]1C[C@H](O)[C@@]1(C)C(=O)[C@H](O)C3=C(C)[C@@H](OC(=O)[C@H](O)[C@@H](NC(=O)OC(C)(C)C)c4ccccc4)C[C@@](O)([C@@H](OC(=O)c4ccccc4)[C@H]21)C3(C)C [docetaxel]	increased sensitivity	increased sensitivity	increased sensitivity	–
Nc1ccn([C@@H]2O[C@H](CO)[C@@H](O)C2(F)F)c(=O)n1 [gemcitabine]	increased sensitivity	increased sensitivity	increased sensitivity	–
O=c1[nH]cc(F)c(=O)[nH]1 [5-FU, 5-fluorouracil]	increased sensitivity	increased sensitivity	increased sensitivity	–
LOXL2-targeted siRNA: siRNA homologous to the second SRCR domain of LOXL2, from Invitrogen: UCAACGAAUUGUCAAAUUUGAACCC (listed as RNA, chemistry not given here)	–	–	–	reduction of levels of LOXL2 mRNA (LOXL2 mRNA): five-fold; effect of siRNA transfection on sensitivity of the cells to erlotinib (MDA231 cells; FIG. 14): greatly increased sensitivity; effect of siRNA on sensitivity of the cells to erlotinib (MDA231 cells): little or no effect
COc1cccc2c1C(=O)c1c(O)c3c(c(O)c1C2=O)C[C@@](O)(C(=O)CO)C[C@@H]3O[C@H]1C[C@H](N)[C@H](O)[C@H](C)O1 [doxorubicin]	increased sensitivity	increased sensitivity	increased sensitivity	–
N.N.[Cl][Pt][Cl] [cisplatin (DDP), cis-diaminedichloroplatinum(II)]	increased sensitivity	–	–	–
C#Cc1cccc(Nc2ncnc3cc(OCCOC)c(OCCOC)cc23)c1 [erlotinib, N-(3-ethynylphenyl)-6,7-bis(2-methoxyethoxy)quinazolin-4-amine]	–	increased sensitivity	increased sensitivity	killing of cells by erlotinib (MDA231 cells; MDA 231 cells on collagen matrix, transfected with siRNA nonhomologous to LOX or LOXL2, FIG. 14): resistant to killing
B1	–	–	–	binding site on LOXL2 (LOXL2 [1]): binds to the SRCR3-4 domain of LOXL2; extent of inhibition of LOXL2 enzymatic activity (LOXL2 [2]): partial inhibitor; mode of inhibition of LOXL2 enzymatic activity (LOXL2 [2]): non-competitive inhibitor
